Tests used:
RARα = target: T1, RARα (Homo sapiens, UniProt P10276); experiment: RARE-luciferase reporter assay in transfected CV-1 cells (affinity to retinoic acid receptor), RARα; assay type: cell-based; details: treated 24 hours at final concentration 10^−4M, control group 1000
T1 construct: expressed in transfected cells; host or cells: CV-1 cells (ATCC)
T1 sequence (P10276 1-462): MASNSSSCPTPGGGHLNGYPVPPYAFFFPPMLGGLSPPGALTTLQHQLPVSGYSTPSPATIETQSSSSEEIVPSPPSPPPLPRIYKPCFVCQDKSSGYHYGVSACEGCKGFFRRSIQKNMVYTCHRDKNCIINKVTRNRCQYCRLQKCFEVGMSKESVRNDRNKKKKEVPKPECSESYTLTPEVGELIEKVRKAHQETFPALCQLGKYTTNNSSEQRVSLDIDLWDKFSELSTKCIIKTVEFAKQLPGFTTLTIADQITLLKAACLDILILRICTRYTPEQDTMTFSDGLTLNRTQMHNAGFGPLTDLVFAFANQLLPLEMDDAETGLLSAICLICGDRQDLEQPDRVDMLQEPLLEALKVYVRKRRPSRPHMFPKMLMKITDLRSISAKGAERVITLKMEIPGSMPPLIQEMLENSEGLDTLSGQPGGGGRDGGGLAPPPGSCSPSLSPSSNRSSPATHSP
Method in brief: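 CV-1 cells co-transfected with pECE-RARα or pECE-RARγ, RARE-tk-Luc reporter and β-galactosidase vector. Starting 24 h post-transfection, cells were treated for 24 h with compounds at a final 10^−4M; luciferase reporter read-out.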

RARγ = target: T2, RARγ (Homo sapiens, UniProt P13631); experiment: RARE-luciferase reporter assay in transfected CV-1 cells (affinity to retinoic acid receptor), RARγ; assay type: cell-based; details: treated 24 hours at final concentration 10^−4M, control group 5000
T2 construct: expressed in transfected cells; host or cells: CV-1 cells (ATCC)
T2 sequence (P13631 1-454): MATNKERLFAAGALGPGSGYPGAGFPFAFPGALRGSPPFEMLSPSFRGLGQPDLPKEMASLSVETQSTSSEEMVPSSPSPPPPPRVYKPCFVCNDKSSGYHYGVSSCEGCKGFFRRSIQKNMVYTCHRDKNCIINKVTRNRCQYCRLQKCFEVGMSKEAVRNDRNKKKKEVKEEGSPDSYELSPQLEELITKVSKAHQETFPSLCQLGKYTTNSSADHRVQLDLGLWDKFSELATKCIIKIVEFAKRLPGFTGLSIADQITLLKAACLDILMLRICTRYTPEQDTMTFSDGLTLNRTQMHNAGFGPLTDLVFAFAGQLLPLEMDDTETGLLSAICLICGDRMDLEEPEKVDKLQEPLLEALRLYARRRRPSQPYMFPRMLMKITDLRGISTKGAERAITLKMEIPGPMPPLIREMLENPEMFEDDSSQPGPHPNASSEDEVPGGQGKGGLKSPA
Method in brief: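 CV-1 cells in DMEM with 2.5% FBS, 5,000 per well, transfected 24 h after seeding with 10 ng pECE-RARα, pECE-RARγ, 100 ng RARE-tk-Luc reporter and 100 ng β-galactosidase vector. Read-out is RARE-driven luciferase.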

procollagen type I = experiment: Effect on collagen biosynthesis (procollagen type I ELISA) in human fibroblasts; assay type: cell-based; details: 10^−4M, 24 hours, serum-free medium, relative to control group = 100
Experimental: Human fibroblasts were seeded into 24-well plate at 1×10^5 cells per well and then cultured to 90% of growth.
For each supernatant, procollagen production was measured with procollagen type I ELISA kit.

collagenase = experiment: Inhibition of collagenase expression in human fibroblasts (ELISA kit); assay type: cell-based; details: 10^−4M, 24 hours, serum-free medium, relative to control group = 100
Method in brief: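 Serum-starved human fibroblasts were treated for 24 h with 10^−4M test material in serum-free DMEM. Collagenase in the culture fluid was measured by sandwich ELISA read at 405 nm. Values are expressed as % of the untreated control (=100).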

elastase = experiment: Inhibition of elastase expression in human fibroblasts (ELISA kit); assay type: cell-based; details: 10^−4M, 24 hours, serum-free medium, relative to control group = 100
Method in brief: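 Elastase in fibroblast culture fluid quantified by sandwich ELISA: 3 h capture, then chromophore-conjugated secondary antibody, then colour development, stopped with 1M sulfuric acid. Absorbance read at 405 nm. Expression given as % of the untreated control absorbance, with control set to 100.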

rabbits = details: rabbit, in vivo
Experimental: Test was performed using fifty-six (56) of healthy male rabbits whose backs were depilated. […] 0.5ml of the test sample solution was applied to the right site of 2.5 cm×2.5 cm region on each of the depilated back. Left site with no sample treated was compared as a control. 24 hours or 72 hours later, skin abnormality such as erythema, crust and edema was observed.
Based on the score of skin response, skin irritation was evaluated according to Draize's P.I.I.(Primary Irritation Index) and compared with retinoic acid.

white guinea pigs = experiment: Phototoxicity test (UVA irradiation); details: for Evaluation (phototoxicity): 1%(w/v) solution, UVA 15 J/cm^2; for Phototoxic index: 50 μl of 1%(w/v) solution, UVA 320~380 nm 15 J/cm^2, observed 24, 48 and 72 hours

Compound	Luciferase activity RARα (RARα)	Luciferase activity RARγ (RARγ)	Collagen biosynthesis (%) (procollagen type I)	Collagenase expression (%) (collagenase)	Elastase expression (%) (elastase)	Evaluation (skin irritation) (rabbits)	P.I.I. (Primary Irritation Index) (rabbits)	Evaluation (phototoxicity) (white guinea pigs)	Phototoxic index (white guinea pigs)
CN(C(=O)c1ccc(C(C)(C)C)cc1)c1ccc(C(=O)NO)cc1 [Example 19, N-[4-(N-hydroxycarbamoyl)phenyl]-N-methyl-[4-tert-butylphenyl]carboxyamide]	10020	11200	120	70	80	No irritation	0.223	No phototoxicity (lower value than 0.5, criterion value to be estimated as no phototoxicity)	0
N-[4-(N-hydroxycarbamoyl)phenyl]adamantyl carboxyamide [Example 10]	11000	12000	106	75	77	No irritation	0.375	No phototoxicity (lower value than 0.5, criterion value to be estimated as no phototoxicity)	0
O=C(Cc1ccc(NC(=O)c2ccccc2)cc1)NO [Example 23, N-[4-(N-hydroxycarbamoylmethyl)phenyl]benzamide]	13000	13200	131	77	79	No irritation	0.321	No phototoxicity (lower value than 0.5, criterion value to be estimated as no phototoxicity)	0
